Experimental data taken from US12655116B2, “Substituted isophthalic acid diamides” (Bayer Aktiengesellschaft, priority 2020, dated 2026).

Legend:
ABUTH [1] = experiment: Pre-emergence herbicidal action against ABUTH; type: in vivo, Abutilon theophrasti
Summary of the method: (§1)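 Greenhouse pots of sandy loam held seeds covered with soil, onto which the compound was applied before emergence. An aqueous suspension or emulsion of WP or EC was used at 600 to 800 l/ha with 0.2% wetting agent. Percent damage was judged visually at 3 weeks.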

ALOMY [2] = experiment: Pre-emergence herbicidal action against ALOMY; type: in vivo, Alopecurus myosuroides
Summary of the method: as §1

AMARE [3] = experiment: Pre-emergence herbicidal action against AMARE; type: in vivo, Amaranthus retroflexus
Summary of the method: as §1

AVEFA = experiment: Pre-emergence herbicidal action against AVEFA; type: in vivo, Avena fatua
Summary of the method: as §1

ECHCG [4] = experiment: Pre-emergence herbicidal action against ECHCG; type: in vivo, Echinochloa crus-galli; details: 80 g/ha
Summary of the method: as §1

LOLRI = experiment: Pre-emergence herbicidal action against LOLRI; type: in vivo, Lolium rigidum; details: 80 g/ha
Summary of the method: as §1

MATIN [5] = experiment: Pre-emergence herbicidal action against MATIN; type: in vivo, Matricaria inodora
Summary of the method: as §1

PHBPU [6] = experiment: Pre-emergence herbicidal action against PHBPU; type: in vivo, Pharbitis purpurea; details: dosage 80 g/ha
Summary of the method: as §1

POLCO = experiment: Pre-emergence herbicidal action against POLCO; type: in vivo, Polygonum convolvulus; details: dosage 80 g/ha
Summary of the method: as §1

SETVI [7] = experiment: Pre-emergence herbicidal action against SETVI; type: in vivo, Setaria viridis; details: dosage 80 g/ha
Summary of the method: as §1

VERPE = experiment: Pre-emergence herbicidal action against VERPE; type: in vivo, Veronica persica
Summary of the method: as §1

VIOTR [8] = experiment: Pre-emergence herbicidal action against VIOTR; type: in vivo, Viola tricolor
Summary of the method: as §1

ABUTH [9] = experiment: Post-emergence herbicidal action against ABUTH; type: in vivo, Abutilon theophrasti; details: visual assessment about 3 weeks after treatment vs untreated controls
Summary of the method: (§2)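 Foliar application at one-leaf stage of formulated test compounds, aqueous spray at 600–800 l/ha with 0.2% wetting agent. Greenhouse, optimal conditions, ~3 weeks; damage scored visually in % relative to untreated plants.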

ALOMY [10] = experiment: Post-emergence herbicidal action against ALOMY; type: in vivo, Alopecurus myosuroides; details: dosage 20 g/ha, visual assessment about 3 weeks after treatment vs untreated controls
Summary of the method: as §2

AMARE [11] = experiment: Post-emergence herbicidal action against AMARE; type: in vivo, Amaranthus retroflexus; details: 20 g/ha, visual assessment about 3 weeks after treatment, 100% = plants have died, 0% = like control plants
Summary of the method: as §2

ECHCG [12] = experiment: Post-emergence herbicidal action against ECHCG; type: in vivo, Echinochloa crus-galli; details: dosage 20 g/ha
Summary of the method: as §2

MATIN [13] = experiment: Post-emergence herbicidal action against MATIN; type: in vivo, Matricaria inodora; details: dosage 20 g/ha
Summary of the method: as §2

PHBPU [14] = experiment: Post-emergence herbicidal action against PHBPU; type: in vivo, Pharbitis purpurea
Summary of the method: as §2

SETVI [15] = experiment: Post-emergence herbicidal action against SETVI; type: in vivo, Setaria viridis; details: dosage 20 g/ha
Summary of the method: as §2

VIOTR [16] = experiment: Post-emergence herbicidal action against VIOTR; type: in vivo, Viola tricolor; details: 20 g/ha
Summary of the method: as §2

DIGSA = experiment: Pre-emergence herbicidal action against DIGSA; type: in vivo, Digitaria sanguinalis; details: Digitaria sanguinalis, 504 h
Summary of the method: as §1

[17] = 80 g/ha, scored visually after 3 weeks vs untreated controls (100% = plants have died, 0% = like control plants)
[18] = 20 g/ha, scored visually after 3 weeks, 100% = plants have died, 0% = like control plants

CCc1c(C(=O)Nc2nnnn2CC)ccc(C(F)(F)F)c1C(=O)NCC(F)F [Example 2-276] was tested, and the “Pre-emergence action against ABUTH (herbicidal activity)” value (ABUTH [1]; [17]) was 100%, the “Pre-emergence action against ABUTH (herbicidal activity in percent)” value (ABUTH [1]; dosage 20 g/ha, scored visually after 3 weeks vs untreated controls, 100% = plants have died, 0% = like control plants) was 100% and the “Pre-emergence action against ALOMY” value (ALOMY [2]; [18]) was 90%. The “Pre-emergence action against ALOMY (herbicidal activity)” value (ALOMY [2]; 80 g/ha, pre-emergence, scored visually after 3 weeks vs untreated controls (100% = plants have died, 0% = like control plants)) was 90%, the “Pre-emergence action against AMARE in %” value (AMARE [3]; 20 g/ha, scored visually after 3 weeks vs untreated controls, 100% = plants have died, 0% = like control plants) was 100% and the “Pre-emergence action against AMARE in %” value (AMARE [3]; [17]) was 100%. The “Pre-emergence action against AVEFA” value (AVEFA; [18]) was 80%, the “Pre-emergence action against AVEFA in %” value (AVEFA; 80 g/ha, pre-emergence) was 90% and the “Pre-emergence action against ECHCG in %” value (ECHCG [4]) was 80%. For the same molecule, the “Pre-emergence action against LOLRI in %” value (LOLRI) was 80%, the “Pre-emergence action against MATIN in %” value (MATIN [5]; dosage 20 g/ha) was 100% and the “Pre-emergence action against MATIN in %” value (MATIN [5]; dosage 80 g/ha) was 100%. For the same molecule, the “Pre-emergence action against PHBPU in %” value (PHBPU [6]) was 90%, the “Pre-emergence action against POLCO in %” value (POLCO) was 90% and the “Pre-emergence action against SETVI in %” value (SETVI [7]) was 100%. For the same molecule, the “Pre-emergence action against VERPE in %” value (VERPE; dosage 80 g/ha) was 80%, the “Pre-emergence action against VIOTR in %” value (VIOTR [8]; dosage 20 g/ha) was 100% and the “Pre-emergence action against VIOTR in %” value (VIOTR [8]; dosage 80 g/ha) was 100%. The “Post-emergence action against ABUTH in %” value (ABUTH [9]; dosage 5 g/ha) was 80%, the “Post-emergence action against ABUTH in %” value (ABUTH [9]; dosage 20 g/ha) was 80% and the “Post-emergence action against ALOMY in %” value (ALOMY [10]) was 80%. For the same molecule, the “Post-emergence action at 20 g/ha against AMARE in %” value (AMARE [11]) was 90%, the “Post-emergence action against ECHCG in %” value (ECHCG [12]) was 90% and the “Post-emergence action against MATIN in %” value (MATIN [13]) was 90%. The “Post-emergence action against PHBPU in %” value (PHBPU [14]; dosage 5 g/ha) was 80%, the “Post-emergence action against PHBPU in %” value (PHBPU [14]; dosage 20 g/ha) was 90% and the “Post-emergence action against SETVI in %” value (SETVI [15]) was 80%. The “Post-emergence action against VIOTR in %” value (VIOTR [16]) was 80%.

Work on CCn1nnnc1NC(=O)c1ccc(C(F)F)c(C(=O)NC(C)C)c1Cl [Example 2-155] yielded a pest or weed control at 80 g/ha (ABUTH [1]; Abutilon theophrasti, 504 h, 80 g/ha, scored visually after 3 weeks vs untreated controls (100% = plants have died, 0% = like control plants)) of 100%, a pest or weed control at 20 g/ha (ABUTH [1]; Abutilon theophrasti, 504 h, dosage 20 g/ha, scored visually after 3 weeks vs untreated controls, 100% = plants have died, 0% = like control plants, read-out: Pre-emergence action against ABUTH (herbicidal activity in percent)) of 100% and a pest or weed control at 80 g/ha (ALOMY [2]; Alopecurus myosuroides, 504 h, 80 g/ha, pre-emergence, scored visually after 3 weeks vs untreated controls (100% = plants have died, 0% = like control plants)) of 100%. For the same molecule, the pest or weed control at 20 g/ha (ALOMY [2]; Alopecurus myosuroides, pre-emergence, 504 h, 20 g/ha, scored visually after 3 weeks, 100% = plants have died, 0% = like control plants) was 80%, the pest or weed control at 20 g/ha (AMARE [3]; Amaranthus retroflexus, 504 h, 20 g/ha, scored visually after 3 weeks vs untreated controls, 100% = plants have died, 0% = like control plants) was 100% and the pest or weed control at 80 g/ha (AMARE [3]; Amaranthus retroflexus, 504 h, 80 g/ha, scored visually after 3 weeks vs untreated controls, 100% = plants have died, 0% = like control plants) was 100%. The pest or weed control at 80 g/ha (AVEFA; Avena fatua, 504 h, 80 g/ha, pre-emergence) was 90%, the pest or weed control at 80 g/ha (ECHCG [4]; Echinochloa crus-galli, 504 h) was 100% and the pest or weed control at 80 g/ha (LOLRI; Lolium rigidum, 504 h) was 80%. For the same molecule, the pest or weed control at 20 g/ha (MATIN [5]; Tripleurospermum inodorum, 504 h, dosage 20 g/ha) was 100%, the pest or weed control at 80 g/ha (MATIN [5]; Tripleurospermum inodorum, 504 h, dosage 80 g/ha) was 100% and the pest or weed control at 80 g/ha (PHBPU [6]; Ipomoea purpurea, 504 h) was 100%. The pest or weed control at 80 g/ha (POLCO; Fallopia convolvulus, 504 h) was 90%, the pest or weed control at 80 g/ha (SETVI [7]; Setaria viridis, 504 h) was 90% and the pest or weed control at 20 g/ha (VERPE; Veronica persica, 504 h, dosage 20 g/ha) was 80%. For the same molecule, the pest or weed control at 80 g/ha (VERPE; Veronica persica, 504 h, dosage 80 g/ha) was 100%, the pest or weed control at 20 g/ha (VIOTR [8]; Viola tricolor, 504 h, dosage 20 g/ha) was 90% and the pest or weed control at 80 g/ha (VIOTR [8]; Viola tricolor, 504 h, dosage 80 g/ha) was 100%. For the same molecule, the pest or weed control at 20 g/ha (DIGSA; dosage 20 g/ha) was 100%, the pest or weed control at 80 g/ha (DIGSA; dosage 80 g/ha) was 100% and the pest or weed control at 5 g/ha (ABUTH [9]; Abutilon theophrasti, 504 h, dosage 5 g/ha) was 80%. The pest or weed control at 20 g/ha (ABUTH [9]; Abutilon theophrasti, 504 h, dosage 20 g/ha) was 80%, the pest or weed control at 20 g/ha (ALOMY [10]; Alopecurus myosuroides, 504 h) was 90% and the pest or weed control at 20 g/ha (AMARE [11]; Amaranthus retroflexus, 504 h) was 90%. The pest or weed control at 20 g/ha (MATIN [13]; Tripleurospermum inodorum, 504 h) was 90%, the pest or weed control at 20 g/ha (PHBPU [14]; Ipomoea purpurea, 504 h, dosage 20 g/ha) was 80% and the pest or weed control at 20 g/ha (VIOTR [16]; Viola tricolor, 504 h) was 80%.
